From ChEMBL document CHEMBL3853314, “G-Protein-Coupled Receptor Kinase 2 (GRK2) Inhibitors: Current Trends and Future Perspectives” (J Med Chem, 2016)
Peptide text beside a SMILES is read from it.

Assays:
[1] = biological target: T1, Beta-adrenergic receptor kinase 1 (Bos taurus, UniProt P21146); assay: Inhibition of bovine cerebral cortex GRK2 assessed as decrease in phosphorylation of beta-adrenoceptor in presence of [gamma-32P]-ATP by SDS-PAGE analysis
T1 sequence (P21146 whole entry): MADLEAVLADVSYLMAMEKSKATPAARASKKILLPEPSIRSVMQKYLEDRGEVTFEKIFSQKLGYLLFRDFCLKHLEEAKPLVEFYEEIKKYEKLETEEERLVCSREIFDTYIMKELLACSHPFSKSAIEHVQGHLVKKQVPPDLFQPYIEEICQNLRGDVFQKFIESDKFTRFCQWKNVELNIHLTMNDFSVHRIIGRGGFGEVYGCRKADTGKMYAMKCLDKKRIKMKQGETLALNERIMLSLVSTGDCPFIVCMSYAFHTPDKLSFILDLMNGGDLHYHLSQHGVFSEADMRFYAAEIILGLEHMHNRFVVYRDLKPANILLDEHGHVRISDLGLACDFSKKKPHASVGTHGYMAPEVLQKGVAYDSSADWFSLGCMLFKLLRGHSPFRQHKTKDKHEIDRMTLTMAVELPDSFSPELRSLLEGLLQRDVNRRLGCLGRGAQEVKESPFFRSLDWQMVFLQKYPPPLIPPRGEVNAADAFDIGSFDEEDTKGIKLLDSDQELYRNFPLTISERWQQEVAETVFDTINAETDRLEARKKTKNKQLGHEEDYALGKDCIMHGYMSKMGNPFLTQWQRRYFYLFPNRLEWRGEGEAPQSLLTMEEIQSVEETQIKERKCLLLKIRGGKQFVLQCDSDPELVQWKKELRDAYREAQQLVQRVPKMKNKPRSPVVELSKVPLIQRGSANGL

Rhodopsin kinase GRK1 = biological target: T2, Rhodopsin kinase GRK1 (Bos taurus, UniProt P28327); assay: Inhibition of bovine C-terminal truncated GRK1 (535 residues) assessed as decrease in phosphorylation of urea-washed bovine rod outer segments preincubated for 30 mins followed by ATP addition and light exposure measured after 5 to 10 mins by SDS-PAGE analysis
T2 sequence (P28327 whole entry): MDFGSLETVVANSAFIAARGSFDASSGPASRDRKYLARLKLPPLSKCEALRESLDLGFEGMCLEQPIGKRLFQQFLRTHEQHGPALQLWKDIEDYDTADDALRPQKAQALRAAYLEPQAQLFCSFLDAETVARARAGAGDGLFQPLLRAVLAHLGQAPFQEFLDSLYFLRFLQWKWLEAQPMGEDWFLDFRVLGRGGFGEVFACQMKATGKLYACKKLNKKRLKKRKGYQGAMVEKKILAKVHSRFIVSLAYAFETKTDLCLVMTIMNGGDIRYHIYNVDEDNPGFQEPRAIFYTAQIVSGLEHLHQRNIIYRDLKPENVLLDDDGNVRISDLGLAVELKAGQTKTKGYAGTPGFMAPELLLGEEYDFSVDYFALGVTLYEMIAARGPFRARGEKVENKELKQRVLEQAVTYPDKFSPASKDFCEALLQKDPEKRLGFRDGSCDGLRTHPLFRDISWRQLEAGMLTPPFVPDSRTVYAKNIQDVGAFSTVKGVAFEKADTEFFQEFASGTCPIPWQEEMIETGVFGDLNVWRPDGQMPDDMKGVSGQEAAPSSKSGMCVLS

[2] = biological target: T3, cGMP-dependent protein kinase 1 (Homo sapiens, UniProt Q13976); assay: Binding affinity to human recombinant N-terminal GST-tagged PKGalpha expressed in Baculovirus infected insect Sf9 cells using RKRSRAE as substrate in presence of [gamma-32P]ATP
T3 sequence (Q13976 whole entry): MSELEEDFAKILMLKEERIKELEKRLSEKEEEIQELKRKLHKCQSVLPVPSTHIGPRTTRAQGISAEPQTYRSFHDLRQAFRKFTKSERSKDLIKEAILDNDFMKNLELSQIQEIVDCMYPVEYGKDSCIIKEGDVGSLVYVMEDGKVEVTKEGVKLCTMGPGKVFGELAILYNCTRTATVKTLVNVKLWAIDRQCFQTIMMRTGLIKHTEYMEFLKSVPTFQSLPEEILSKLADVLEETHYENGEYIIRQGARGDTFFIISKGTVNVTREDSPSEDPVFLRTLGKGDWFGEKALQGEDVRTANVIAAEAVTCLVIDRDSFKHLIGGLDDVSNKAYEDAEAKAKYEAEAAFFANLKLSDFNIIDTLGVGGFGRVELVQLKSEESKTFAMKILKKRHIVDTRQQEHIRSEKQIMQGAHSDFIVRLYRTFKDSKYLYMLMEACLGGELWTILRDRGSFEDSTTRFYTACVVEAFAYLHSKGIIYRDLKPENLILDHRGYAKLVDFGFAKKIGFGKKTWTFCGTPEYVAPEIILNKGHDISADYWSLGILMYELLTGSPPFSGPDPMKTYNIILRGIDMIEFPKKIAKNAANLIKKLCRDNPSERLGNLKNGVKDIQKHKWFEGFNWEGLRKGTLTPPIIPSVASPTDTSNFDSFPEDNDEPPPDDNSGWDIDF

[3] = biological target: Protein kinase C alpha type (Homo sapiens, UniProt P17252); assay: Binding affinity to PKCalpha (unknown origin) using Lys-Arg-Thr-Leu-Arg-Arg as substrate after 8 mins in presence of [gamma-32P]ATP by liquid scintillation spectrometry
[4] = biological target: Protein kinase C beta type (Homo sapiens, UniProt P05771); assay: Binding affinity to PKCbeta2 (unknown origin) using Lys-Arg-Thr-Leu-Arg-Arg as substrate after 8 mins in presence of [gamma-32P]ATP by liquid scintillation spectrometry
Chain of Protein kinase C beta type (P05771 whole entry): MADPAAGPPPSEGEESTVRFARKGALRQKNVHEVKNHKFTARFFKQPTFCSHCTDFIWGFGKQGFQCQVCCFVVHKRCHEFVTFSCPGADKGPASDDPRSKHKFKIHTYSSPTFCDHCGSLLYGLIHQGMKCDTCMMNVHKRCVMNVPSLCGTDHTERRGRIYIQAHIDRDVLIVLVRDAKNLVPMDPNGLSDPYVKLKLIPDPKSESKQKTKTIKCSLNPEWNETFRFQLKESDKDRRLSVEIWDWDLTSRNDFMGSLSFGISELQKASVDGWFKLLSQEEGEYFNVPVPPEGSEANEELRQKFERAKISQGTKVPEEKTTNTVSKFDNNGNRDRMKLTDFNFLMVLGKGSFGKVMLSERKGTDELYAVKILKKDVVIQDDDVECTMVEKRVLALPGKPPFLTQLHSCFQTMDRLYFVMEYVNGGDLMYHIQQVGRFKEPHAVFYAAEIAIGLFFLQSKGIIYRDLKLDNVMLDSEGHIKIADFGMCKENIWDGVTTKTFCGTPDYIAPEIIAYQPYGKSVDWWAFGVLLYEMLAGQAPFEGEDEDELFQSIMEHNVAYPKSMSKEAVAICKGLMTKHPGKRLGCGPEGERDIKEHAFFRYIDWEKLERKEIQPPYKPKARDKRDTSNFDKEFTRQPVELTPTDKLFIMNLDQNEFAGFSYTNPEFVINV

Compound	IC50 [1]	IC50 (Rhodopsin kinase GRK1)	Kd [2]	Kd [3]	Kd [4]
CC(C)C[C@H](NC(=O)[C@H](CCCNC(=N)N)NC(=O)[C@H](CCC(=O)O)NC(=O)[C@H](Cc1ccccc1)NC(=O)[C@H](CCCCN)NC(=O)[C@H](C)N)C(=O)N[C@@H](CCC(N)=O)C(=O)N[C@H](C(=O)N[C@H](C(=O)N[C@H](C(=O)N[C@@H](CC(N)=O)C(=O)O)[C@@H](C)O)C(C)C)[C@@H](C)O (H-AKFERLQTVTN-OH)	1600 µM	–	–	–	–
O=C(N[C@@H]1CNCCC[C@H]1OC(=O)c1cc(O)c(C(=O)c2c(O)cccc2C(=O)O)c(O)c1)c1ccc(O)cc1 [BALANOL]	–	4.1 µM	0.0016 µM	0.0064 µM	0.0018 µM
